Entries after “also recorded” stand apart in the source; their conditions may differ. Where two headings read alike, the source gives them in different places.
Tests used:
[1] = tested on: HBDH; experiment: PK-PD sigmoid-Emax model, PD index HBDH in MDG rats; assay type: in vivo, SD rats; set-up: unit not given beside the values
[2] = tested on: LDH; experiment: PK-PD sigmoid-Emax model, PD index LDH in MDG rats
Excerpt: Subsequently, we incorporated the PK and PD data to conduct PK-PD modeling through DAS.
Therefore, PK-PD correlation analysis was used in this study, linking dynamic concentration–time processes and effect–time profile relationships [20, 21, 22]. […] The model adopted in this study is the S-Emax model. In the equation, γ means the shape factor in the formula, affecting the slope and determining the steepness of the curve. Emax can provide the maximum response intensity, and ED50 is for evaluating the safety of the drug, which is understood as the amount of the drug that causes 50% of the maximum response intensity.
Plasma creatine kinase (CK), hydroxybutyrate dehydrogenase (HBDH), lactate dehydrogenase (LDH), and superoxide dismutase (SOD) activity was determined using an automatic biochemical analyzer.
The activity of the CK, HBDH, LDH, and SOD of plasma samples collected at different time points was determined using an automatic biochemical analyzer for PD index evaluation. […] Two compartmental methods were used, employing the drug and statistics, which was supplied by the Chinese Pharmacological Society. Then, the efficacy indicators were fitted in the PK-PD model.

[3] = tested on: AST; experiment: PK-PD sigmoid-Emax model, PD index AST in MDG rats; assay type: in vivo, SD rats; set-up: unit not given beside the values
[4] = rat
Experimental: A series concentration mixed reference solution with different concentrations was added to 100 μL plasma, and was treated according to the method under Section 4.6 to obtain the matrix standard curve sample. Samples with concentrations of 400, 100, and 10 ng/mL, respectively, were taken as quality control (QC) samples of high, medium, and low concentrations (HQC, MQC, LQC). The method was validated, including linearity, inter-day/intra-day precision, repeatability, stability, extraction recovery, and matrix effect, according to FDA bioanalytical method validation guidelines.

[5] = cited from earlier work
[6] = tested on: SOD; experiment: PK-PD sigmoid-Emax model, PD index SOD in MDG rats; assay type: in vivo, SD rats; set-up: Ke0: unit not given beside the values
[7] = PK of five RC components in sham operation administration (SDG, normal) rats after oral RC extract, HPLC-QQQ-MS/MS, DAS; assay type: in vivo, SD rats; conditions: rat, SDG rats, oral RC extract 2 g/kg, plasma, mean ± SD, n = 6; for AUC(0-t): read-out: AUC(0−t); for AUC(0-inf): read-out: AUC(0−∞); for CL/F: read-out: CLz/F (converted); for Cmax: read-out: Cmax; for MRT: read-out: MRT(0−); for Tmax: read-out: Tmax; for Vd/F: read-out: Vz/F; for half-life: read-out: t1/2z (converted)
Experimental: (§1) The drug concentration in plasma was calculated using the standard curve, and the mean blood concentration was plotted against the time to obtain the mean blood concentration–time curve (Figure 4).
(§2) The rat model of MI was made with Pit. The rats were divided into a sham operation group (SG), sham operation administration group (SDG), model group (MG), and model administration group (MDG) (n = 6 for each group). The MI model was prepared via an intraperitoneal injection (a single time) of Pit in the MG and MDG, with a dosage of 20 U/kg and a volume of 10 mL/kg. At the same time, the rats in the SG and SDG groups were given the same volume of saline in the same way.
(§3) RC extract (2 g/kg, equivalent to human clinical equivalent dose) was given to rats via oral administration in SDG and MDG, and the same volume of normal saline was orally administered to the SG and MG. Rats were fasted for 12 h before the experiment. Blood was collected from the fundus venous plexus at 0, 5, 10, 15, 30, 45 min, 1, 2, 4, 6, 8, 12, and 24 h after in gavage, placed in a centrifuge tube impregnated with heparin sodium, centrifuged at 3500 rpm for 15 min, and then the plasma was collected and divided into two parts. One part was used for biochemical index determination and the other part was used to determine the content of pharmaceutical ingredients in vivo. After the experiment, the rats were sacrificed, and the hearts were placed in paraformaldehyde for histopathological analysis.
(§4) The plasma sample of 100 μL was accurately absorbed, 50 μL internal standard solution (Nimodipine, 500 ng/mL) was added, then 300 μL acetonitrile precipitated protein was added, vortex for 10 min, placed under ultrasound for 3 min, centrifuged at 13,000 rpm for 10 min, and then the supernatant was transferred to another centrifuge tube. It was then concentrated until dry with a rotary evaporator. The residue was redissolved with 100 μL 50% acetonitrile, swirled for 1 min, placed under ultrasonic for 3 min, centrifuged at 13,000 rpm for 10 min, and the supernatant was taken for analysis.
(§5) A validated HPLC-QQQ-MS/MS method was used for the determination of drug-derived components in plasma samples at different time points. The accompanying standard curve was substituted to calculate the content of the compounds to be measured, and then the PK parameters were calculated using DAS software (version 3.2.8), and the blood concentration–time curve was plotted using GraphPad Prism (version 8.0.2). PK behavior was compared between the sham operation and model group, and PK models were established, respectively.

[8] = PK of five RC components in pituitrin-induced myocardial ischemia (MDG) rats after oral RC extract, HPLC-QQQ-MS/MS, DAS; assay type: in vivo, SD rats; conditions: for AUC(0-t) / AUC(0-inf) / CL/F / Cmax / MRT / MRT inf / Tmax / Vd/F / half-life: rat, plasma; for AUC(0-t): read-out: AUC(0−t); for AUC(0-inf): read-out: AUC(0−∞); for CL/F: read-out: CLz/F (converted); for Cmax: read-out: Cmax; for MRT: read-out: MRT(0−); for MRT inf: read-out: MRT(0−∞); for Vd/F: read-out: Vz/F; for half-life: read-out: t1/2z (converted)
Experimental: as §1, §2, §3, §4, §5

[9] = tested on: CK; experiment: PK-PD sigmoid-Emax model, PD index CK in MDG rats; assay type: in vivo, SD rats; set-up: Emax: unit not given beside the values
[10] = MDG vs SDG rats, oral RC extract 2 g/kg
[11] = in vivo, MDG (myocardial ischemia) rats, oral RC extract 2 g/kg, mean ± SD, n = 6
[12] = MDG (myocardial ischemia) rats, oral RC extract 2 g/kg, mean ± SD, n = 6

Compound O=c1c(O)c(-c2ccc(O)cc2)oc2cc(O)cc(O)c12 [Kaempferol, kaempferol] has an Emax [1] of 6565.084, a Ke0 [1] of 0.928 and an Emax [2] of 599.812. For the same compound, the Emax [3] was 1422.742, the Ke0 [3] was 2.998 and the “Stability RE (%)” value ([4]; 10 ng/mL) was 102.9%. The “Stability RE (%)” value ([4]; 400 ng/mL) was 94.57%, the “Stability RE (%)” value ([4]; 48 h, 10 ng/mL) was 101.5% and the “Stability RE (%)” value ([4]; 48 h, 50 ng/mL) was 90.22%. For the same compound, the “Stability RE (%)” value ([4]; 48 h, 400 ng/mL) was 92.55%, the “Stability RE (%)” value ([4]; 10 days, 50 ng/mL) was 99.12% and the “Stability RE (%)” value ([4]; 10 days, 400 ng/mL) was 100.4%. For the same compound, the “AUC, MRT, t1/2, and Cmax in modeled rats” value ([5]; modeled rats (disease state)) was “increased”, the “Clearance in modeled rats” value ([5]; modeled rats (disease state)) was “decreased” and the Emax [6] was 68.398. For the same compound, the Ke0 [6] was 0.115, the AUC(0-t) ([7]; in vivo) was 306 ± 30.5 ng·h/mL and the AUC(0-inf) ([7]; in vivo) was 427 ± 95.4 ng·h/mL. It also gave a CL/F ([7]; in vivo) of 203 mL/min/kg, a Cmax ([7]; in vivo) of 31.2 ± 1.53 ng/mL and an MRT ([7]; in vivo) of 8.54 ± 0.55 h. For the same compound, the MRT inf ([7]; in vivo, read-out: MRT(0−∞)) was 19.4 ± 9.37 h, the Tmax ([7]; in vivo) was 1.67 ± 1.21 h and the Vd/F ([7]; in vivo) was 224 ± 107 L/kg. The half-life ([7]; in vivo) was 14.1 ± 8.42 h, the “Change of CLZ/F in MDG compared with SDG” value [8, 10] was “marked decreasing tendency; also recorded: decreased significantly” and the “Change of Cmax in MDG compared with SDG” value [8, 10] was “increased significantly; also recorded: significantly increased”. For the same compound, the AUC(0-t) [8, 11] was 354 ± 50.4 ng·h/mL, the AUC(0-inf) [8, 11] was 645 ± 179 ng·h/mL and the CL/F [8, 11] was 140 mL/min/kg. The Cmax [8, 11] was 38.4 ± 4.92 ng/mL, the MRT [8, 11] was 9.05 ± 0.7 h and the MRT inf [8, 11] was 30.9 ± 14.1 h. It also gave a Tmax ([8]; in vivo, MDG (myocardial ischemia) rats, oral RC extract 2 g/kg, mean ± SD, n = 6, read-out: Tmax) of 0.75 h, a Vd/F [8, 11] of 245 ± 67 L/kg and a half-life [8, 11] of 22.7 ± 10.7 h. The Emax [9] was 2736.472 and the Ke0 [9] was 2.998.
Compound OC[C@H]1O[C@@H](OCCc2ccc(O)cc2)[C@H](O)[C@@H](O)[C@@H]1O [Salidroside, salidroside] has an Emax [1] of 4898.547, a Ke0 [1] of 0.46 and an Emax [2] of 482.587. For the same compound, the Ke0 [2] was 2.476, the Emax [3] was 1091.001 and the Ke0 [3] was 2.821. For the same compound, the “Stability RE (%)” value ([4]; 10 ng/mL) was 90.22%, the “Stability RE (%)” value ([4]; 400 ng/mL) was 99.82% and the “Stability RE (%)” value ([4]; 48 h, 10 ng/mL) was 89.72%. The “Stability RE (%)” value ([4]; 48 h, 50 ng/mL) was 90.35%, the “Stability RE (%)” value ([4]; 48 h, 400 ng/mL) was 98.56% and the “Stability RE (%)” value ([4]; 10 days, 10 ng/mL) was 88.35%. The “Stability RE (%)” value ([4]; 10 days, 50 ng/mL) was 100.1%, the “Stability RE (%)” value ([4]; 10 days, 400 ng/mL) was 97.63% and the “Systemic exposure in hypoxia” value ([5]; hypoxia) was “increased significantly”. For the same compound, the “Bioavailability under pathological conditions” value ([5]; pathological conditions) was “increased significantly”, the Emax [6] was 71.79 and the Ke0 [6] was 0.025. It also gave an AUC(0-t) [7] of 5710 ± 321 ng·h/mL, an AUC(0-inf) [7] of 8350 ± 2310 ng·h/mL and a CL/F [7] of 10.7 mL/min/kg. The Cmax [7] was 1010 ± 84.2 ng/mL, the MRT [7] was 7.14 ± 0.51 h and the Tmax [7] was 0.75 ± 0.16 h. The Vd/F [7] was 15.2 ± 8.77 L/kg, the half-life [7] was 19.9 ± 16 h and the “Change of Cmax in MDG compared with SDG” value [8, 10] was “increased significantly; also recorded: significantly increased”. The Tmax ([8]; SD, po, 2 g/kg, MDG (myocardial ischemia) rats, oral RC extract 2 g/kg, mean ± SD, n = 6, read-out: Tmax) was 0.83 ± 0.13 h, the Tmax ([8]; SD, po, 2 g/kg, according to the PK results, group not given, oral RC extract, read-out: Tmax (approximate)) was about 1 h and the AUC(0-t) [8, 12] was 7790 ± 1160 ng·h/mL. It also gave an AUC(0-inf) [8, 12] of 10000 ng·h/mL, a CL/F [8, 12] of 8.67 mL/min/kg and a Cmax [8, 12] of 1350 ± 133 ng/mL. For the same compound, the MRT [8, 12] was 6.7 ± 0.61 h, the MRT inf [8, 12] was 16.7 ± 9.83 h and the Vd/F [8, 12] was 10.7 ± 7.46 L/kg. It also gave a half-life [8, 12] of 15.4 ± 11.2 h, an Emax [9] of 2288.494 and a Ke0 [9] of 2.698.
Compound rhodiosin has an Emax [1] of 4335.008, a Ke0 [1] of 0.469 and an Emax [2] of 484.31. The Ke0 [2] was 2.998, the Emax [3] was 1084.02 and the Ke0 [3] was 2.998. For the same compound, the Emax [6] was 72.933, the Ke0 [6] was 0.055 and the Emax [9] was 2289.293. For the same compound, the Ke0 [9] was 2.998.

Reference: PMC11124525, “Pharmacokinetic–Pharmacodynamic Correlation Analysis of Rhodiola crenulata in Rats with Myocardial Ischemia” (Pharmaceuticals, 2024)
